Test results taken from patent US20250340568A1, “SOLID FORMS OF A MACROCYCLIC COMPOUNDS AS CFTR MODULATORS AND THEIR PREPARATION” (Vertex Pharmaceuticals Incorporated, priority 2022, published 2025).

Target: T1, CFTR (F508del/MF-HBE cells) (Homo sapiens, UniProt P13569, DEL508-508)
T1 construct: human bronchial epithelial (HBE) cells derived from CF subjects heterozygous for F508del and a minimal function CFTR mutation; endogenous in cells; host or cells: primary human bronchial epithelial cells from CF subjects (F508del/MF genotype), differentiated at air-liquid interface
T1 sequence (P13569 with tags, fused parts or gaps DEL508-508): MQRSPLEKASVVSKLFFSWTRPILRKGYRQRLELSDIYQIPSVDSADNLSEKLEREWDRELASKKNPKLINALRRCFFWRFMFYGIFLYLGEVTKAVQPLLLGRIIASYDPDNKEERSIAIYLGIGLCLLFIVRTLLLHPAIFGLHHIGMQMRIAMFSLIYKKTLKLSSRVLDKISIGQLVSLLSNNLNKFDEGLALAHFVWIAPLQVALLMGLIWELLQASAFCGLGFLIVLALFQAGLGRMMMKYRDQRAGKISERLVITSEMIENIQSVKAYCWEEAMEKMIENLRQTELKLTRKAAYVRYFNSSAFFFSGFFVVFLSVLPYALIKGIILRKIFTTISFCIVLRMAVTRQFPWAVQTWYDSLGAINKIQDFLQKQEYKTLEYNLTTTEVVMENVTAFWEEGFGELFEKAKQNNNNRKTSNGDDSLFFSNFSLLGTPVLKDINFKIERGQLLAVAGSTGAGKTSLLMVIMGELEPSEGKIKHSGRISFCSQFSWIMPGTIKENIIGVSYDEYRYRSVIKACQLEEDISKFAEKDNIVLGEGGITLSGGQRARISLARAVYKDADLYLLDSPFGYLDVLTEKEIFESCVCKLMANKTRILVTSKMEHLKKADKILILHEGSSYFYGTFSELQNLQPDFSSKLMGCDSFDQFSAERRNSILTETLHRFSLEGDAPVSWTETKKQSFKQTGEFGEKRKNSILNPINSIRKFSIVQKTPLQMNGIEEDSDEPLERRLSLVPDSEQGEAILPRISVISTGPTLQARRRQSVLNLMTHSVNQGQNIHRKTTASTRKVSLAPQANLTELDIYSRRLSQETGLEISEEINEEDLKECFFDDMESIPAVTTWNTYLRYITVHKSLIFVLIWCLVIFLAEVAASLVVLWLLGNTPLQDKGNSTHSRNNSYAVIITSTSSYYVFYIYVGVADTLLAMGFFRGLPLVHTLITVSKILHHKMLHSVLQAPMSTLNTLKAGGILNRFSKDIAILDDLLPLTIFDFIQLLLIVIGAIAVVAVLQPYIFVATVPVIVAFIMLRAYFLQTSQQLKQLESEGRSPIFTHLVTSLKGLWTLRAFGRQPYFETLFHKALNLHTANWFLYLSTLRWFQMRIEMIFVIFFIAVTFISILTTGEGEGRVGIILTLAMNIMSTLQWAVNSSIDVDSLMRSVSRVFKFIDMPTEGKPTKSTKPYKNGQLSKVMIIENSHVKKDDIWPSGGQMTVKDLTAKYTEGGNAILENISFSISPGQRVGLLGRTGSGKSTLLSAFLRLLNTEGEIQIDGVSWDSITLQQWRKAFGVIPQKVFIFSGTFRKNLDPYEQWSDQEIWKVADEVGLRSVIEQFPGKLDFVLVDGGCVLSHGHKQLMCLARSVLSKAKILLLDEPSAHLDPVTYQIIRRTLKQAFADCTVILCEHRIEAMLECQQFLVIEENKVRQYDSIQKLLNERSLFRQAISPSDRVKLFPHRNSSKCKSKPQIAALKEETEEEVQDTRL
Experiment: Ussing chamber assay of CFTR-mediated short-circuit currents (potentiator identification)
Assay type: cell-based
Details: incubated 18-24 hours at 37° C. with 10 μM (14S)-8-[3-(2-{dispiro[2.0.2.1]heptan-7-yl}ethoxy)-1H-pyrazol-1-yl]-... trione (Compound VII), 20% human serum, read-out: CFTR-modulating activity EC50
Experimental: Ussing Chamber Assay of CFTR-mediated short-circuit currents
Ussing chamber experiments were performed using human bronchial epithelial (HBE) cells derived from CF subjects heterozygous for F508del and a minimal function CFTR mutation (F508del/MF-HBE) and cultured as previously described (Neuberger T, Burton B, Clark H, Van Goor F Methods Mol Biol 2011:741:39-54). After four days the apical media was removed, and the cells were grown at an air liquid interface for >14 days prior to use.
To isolate the CFTR-mediated short-circuit (ISC) current, F508del/MF-HBE grown on Costar® Snapwell™ cell culture inserts were mounted in an Ussing chamber and the transepithelial ISC was measured under voltage-clamp recording conditions (Vhold=0 mV) at 37° C. The basolateral solution contained (in mM) 145 NaCl, 0.83 K2HPO4, 3.3 KH2PO4, 1.2 MgCl2, 1.2 CaCl2), 10 Glucose, 10 HEPES (pH adjusted to 7.4 with NaOH) and the apical solution contained (in mM) 145 NaGluconate, 1.2 MgCl2, 1.2 CaCl2), 10 glucose, 10 HEPES (pH adjusted to 7.4 with NaOH) and 30 μM amiloride to block the epithelial sodium channel. […] The CFTR-mediated ISC (μA/cm^2) for each condition was determined from the peak forskolin response to the steady-state current following inhibition.
The activity of the CFTR potentiator compounds on the CFTR-mediated ISC was determined in Ussing chamber studies as described above. […]

## CC1(C)CCCCC[C@](O)(C(F)(F)F)C2=NN=C(O2)c2nc(c(C(F)(F)F)cc2N)N1 [Compound I, (6R)-17-amino-12,12-dimethyl-6,15-bis(trifluoromethyl)-19-oxa-3,4,13,18-tetrazatricyclo[12.3.1.12,5]nonadeca-1(18),2,4,14,16-pentaen-6-ol]
  EC50: < 500 nM
